Consider six substances from US10856562B2, “Flavor composition and edible compositions containing same” (MARS, INCORPORATED, priority 2013, dated 2020).

“Also recorded” adds a separate entry of the source. Square brackets hold non-standard residues; d marks the D form. Ends that are not written are not given here. pGlu = O=C1CC[C@@H](C(=O)O)N1

Holding throughout (type): in vivo, human
In assay [1] the test system is panelists. As to the kind of experiment: Degree of Difference (DOD) of test rice from control rice. More on the design: Degree of Difference in rice: scale not given here. The following applies: for Degree of Difference in rice: difference from Control; for Degree of Difference in rice / DOD from Control: rice; for DOD from Control: scale 0.0 to 10.0. An excerpt:
The present example describes the evaluation of the descriptive profile of pGlu-Cys (identified as “FE-35”), pGlu-Cys-Gly (identified as “FE-36”), pGlu-Cys-Cys (identified as “FE-37”), pGlu-Cys-Val (identified as “FE-38”) and pGlu-Val-Cys (identified as “UE-30”) peptides of the present application. An objective of the study was to understand the efficacy of flavor enhancer compounds FE-35, FE-36, FE-37, FE-38 and UE-30 in increasing concentrations both in solution and in rice, and to determine a Degree of Difference (DOD) score between a control rice sample (which includes NaCl, and no flavor composition peptide) and the test rice samples (with added flavor composition peptides at increasing concentrations).

The subject of assay [2] is panelists. As to the kind of experiment: Increased salt perception protocol: salt 5 reference (0.35% salt solution) re-tasted after expectoration of test sample. Conditions: for Astringent, after-expectoration perception / Bitter, after-expectoration perception / Flinty/Mineral, after-expectoration perception / Metallic, after-expectoration perception / Numbing, after-expectoration perception / Salt, after-expectoration perception (mean salt perception after expectoration) / Sour, after-expectoration perception / Sweet, after-expectoration perception: salt 5 reference re-tasted, mean score. The source says:
1. Each panelist tasted a salt reference (0.35% salt solution) with a reference salt intensity of 5.0 which provided a baseline for each panelist for salt intensity. 2. Each panelist tasted a test sample (0.1 ppb, 0.5 ppb, 1.0 ppb, 10.0 ppb or 40.0 ppb all in 0.2% NaCl solution). Only one sample was tasted per session. 3. Each panelist re-tasted the salt reference (5.0 intensity) and rated it for salt intensity as well as any other basic taste, chemical feeling factor, or aromatic perceived. Thus, any increased salt perception as a result of the test sample would be determined, as well as any other perceptions present. Attribute Perception Protocol • The panelists evaluated each sample using the following procedure • Descriptive Profiles (flavor and chemical feeling factors) of 5 levels of salt enhancing solutions • Individual data was collected for the flavor and chemical feeling factors of the product in-mouth • Increased Salt Perception Protocol • Each panelist tasted salt 5 reference (0.35% salt solution)—to ground themselves on salt intensity of 5.0. • Each panelist tasted the test sample (0.1 ppb, 0.5 ppb, 1.0 ppb, 10.0 ppb or 40.0/50.0 ppb all in 0.2% NaCl solution: only one per session) • Each panelist then re-tasted the salt 5 reference and rated it for salt intensity as well as any other basic taste, chemical feeling factor, or aromatic perceived. This captured any increased salt perception indicated by the test sample as well as any other perceptions present. • Return to Baseline Protocol • After evaluating the sample for salt & other perceptions, panelists re-tasted the salt 5 reference at 1 minute intervals until their perception of the salt 5 saltiness intensity had returned to 5.0. Each panelist recorded their salt intensity at each interval and took qualitative notes on other perceptions seen in aftertaste. Sample Preparation

The test system of assay [3] is panelists. As to the kind of experiment: Return to baseline protocol: salt reference re-tasted at 1 minute intervals. The method, then:
After evaluating the sample for salt and other perceptions (step 3 above), each panelist re-tasted the salt reference (5.0 intensity) at 1 minute intervals until their perception of the saltiness intensity of the reference returned to 5.0. Each panelist recorded salt intensity at each interval and took qualitative notes on other perceptions seen in aftertaste. Attribute Perception Protocol • The panelists evaluated each sample using the following procedure • Descriptive Profiles (flavor and chemical feeling factors) of 5 levels of salt enhancing solutions • Individual data was collected for the flavor and chemical feeling factors of the product in-mouth • Increased Salt Perception Protocol • Each panelist tasted salt 5 reference (0.35% salt solution)—to ground themselves on salt intensity of 5.0. • Each panelist tasted the test sample (0.1 ppb, 0.5 ppb, 1.0 ppb, 10.0 ppb or 40.0/50.0 ppb all in 0.2% NaCl solution: only one per session) • Each panelist then re-tasted the salt 5 reference and rated it for salt intensity as well as any other basic taste, chemical feeling factor, or aromatic perceived. This captured any increased salt perception indicated by the test sample as well as any other perceptions present. • Return to Baseline Protocol • After evaluating the sample for salt & other perceptions, panelists re-tasted the salt 5 reference at 1 minute intervals until their perception of the salt 5 saltiness intensity had returned to 5.0. Each panelist recorded their salt intensity at each interval and took qualitative notes on other perceptions seen in aftertaste. Sample Preparation

As for [pGlu]-Cys [FE-35], the “Whether consumers notice a difference between the Control and test rice (DOD)” value is recorded as “Consumers will likely not notice the difference” in the assay on panelists [1] (1 ppb); “Consumers will likely notice a difference” in the assay with panelists [1] (10 and 100 ppb). The “Degree of Difference in rice” value in the assay on panelists [1] (1.0 ppb) turned out to be 3.8; in the assay on panelists [1] (10.0 ppb) it was 5.0; with panelists [1] (100.0 ppb), 5.0. Moreover, the figures for the “DOD from Control” value in the assay on panelists [1] (1.0 ppb (5 ppm)), in the assay with panelists [1] (10.0 ppb (50 ppm)) and in the assay with panelists [1] (100 ppb (50 ppm)) were 3.8, 5.0 and 5.0, respectively.

As to “[pGlu]-Cys-Cys (cysteine pairing not given here) [FE-37]”, the “Whether consumers notice a difference between the Control and test rice (DOD)” value in the assay with panelists [1] (1 and 10 ppb) is on record as “Consumers will may or may not notice a difference”; in the assay with panelists [1] (10 ppb) it was “Consumers may or may not notice a difference”; in the assay on panelists [1] (100 ppb), “Consumers will likely notice a difference”. The entries for the “Degree of Difference in rice” value in the assay with panelists [1] (1.0 ppb), in the assay with panelists [1] (10.0 ppb) and in the assay with panelists [1] (100.0 ppb) were 4.0, 4.5 and 5.0, respectively. In addition, the figures for the “DOD from Control” value with panelists [1] (1.0 ppb (5 ppm)), in the assay on panelists [1] (10.0 ppb (50 ppm)) and in the assay on panelists [1] (100 ppb (50 ppm)) were 4.0, 4.5 and 5.0, respectively.

As to [pGlu]-Cys-Gly [FE-36], the “Whether consumers notice a difference between the Control and test rice (DOD)” value in the assay on panelists [1] (all concentrations) is “Consumers will likely notice a difference”. Moreover, the “Degree of Difference in rice” value is given as 5.0 in the assay with panelists [1] (1.0 ppb), 5.0 in the assay on panelists [1] (10.0 ppb) and 5.5 with panelists [1] (100.0 ppb). In addition, the “DOD from Control” value is recorded as 5.0 in the assay on panelists [1] (1.0 ppb (5 ppm)), 5.0 with panelists [1] (10.0 ppb (50 ppm)) and 5.5 in the assay on panelists [1] (100 ppb (50 ppm)).

For [pGlu]-Cys-Val [FE-38], the “Whether consumers notice a difference between the Control and test rice (DOD)” value is given as “Consumers may or may not notice a difference” in the assay with panelists [1] (1 and 100 ppb); “Consumers will likely notice a difference” with panelists [1] (10 ppb). Besides, the figures for the “Degree of Difference in rice” value in the assay on panelists [1] (1.0 ppb), in the assay on panelists [1] (10.0 ppb) and in the assay with panelists [1] (100.0 ppb) were 4.5, 5.0 and 4.5, respectively. For the same substance, the “DOD from Control” value in the assay on panelists [1] (1.0 ppb (5 ppm)) amounted to 4.5; in the assay with panelists [1] (10.0 ppb (50 ppm)), 5.0; in the assay with panelists [1] (100 ppb (50 ppm)) it was 4.5.

Take [pGlu]-Val [SE-14]: the “Astringent, after-expectoration perception” value was 0.0 with panelists [2] (0.1 ppb in 0.2% NaCl); 0.1 with panelists [2] (0.5 ppb in 0.2% NaCl); 0.1 in the assay on panelists [2] (1.0 ppb in 0.2% NaCl); 0.0 with panelists [2] (10.0 ppb in 0.2% NaCl); 0.1 in the assay on panelists [2] (50.0 ppb in 0.2% NaCl). For the same substance, the “Bitter, after-expectoration perception” value in the assay with panelists [2] (0.1 ppb in 0.2% NaCl), with panelists [2] (0.5 ppb in 0.2% NaCl), with panelists [2] (1.0 ppb in 0.2% NaCl), in the assay with panelists [2] (10.0 ppb in 0.2% NaCl) and in the assay on panelists [2] (50.0 ppb in 0.2% NaCl) was 0.0 in each case. The “Flinty/Mineral, after-expectoration perception” value came to 1.1 in the assay on panelists [2] (0.1 ppb in 0.2% NaCl); 1.0 with panelists [2] (0.5 ppb in 0.2% NaCl); 0.5 with panelists [2] (1.0 ppb in 0.2% NaCl); 1.0 in the assay with panelists [2] (10.0 ppb in 0.2% NaCl); 0.6 in the assay with panelists [2] (50.0 ppb in 0.2% NaCl). Besides, the “Metallic, after-expectoration perception” value with panelists [2] (0.1 ppb in 0.2% NaCl) amounted to 0.3; in the assay with panelists [2] (0.5 ppb in 0.2% NaCl), 0.1; in the assay with panelists [2] (1.0 ppb in 0.2% NaCl) it was 0.1; in the assay on panelists [2] (10.0 ppb in 0.2% NaCl) it was 0.2; in the assay on panelists [2] (50.0 ppb in 0.2% NaCl), 0.1. For the same substance, the “Numbing, after-expectoration perception” value in the assay with panelists [2] (0.1 ppb in 0.2% NaCl), in the assay with panelists [2] (0.5 ppb in 0.2% NaCl), in the assay on panelists [2] (1.0 ppb in 0.2% NaCl), with panelists [2] (10.0 ppb in 0.2% NaCl) and in the assay with panelists [2] (50.0 ppb in 0.2% NaCl) was 0.0 throughout. Also, the “Salt, after-expectoration perception (mean salt perception after expectoration)” value with panelists [2] (0.1 ppb in 0.2% NaCl) was 6.7; in the assay on panelists [2] (0.5 ppb in 0.2% NaCl), 7.0; with panelists [2] (1.0 ppb in 0.2% NaCl), 7.0; in the assay with panelists [2] (10.0 ppb in 0.2% NaCl), 7.3; in the assay on panelists [2] (50.0 ppb in 0.2% NaCl), 8.0. For the same substance, the “Sour, after-expectoration perception” value with panelists [2] (0.1 ppb in 0.2% NaCl), in the assay with panelists [2] (0.5 ppb in 0.2% NaCl), with panelists [2] (1.0 ppb in 0.2% NaCl), with panelists [2] (10.0 ppb in 0.2% NaCl) and in the assay with panelists [2] (50.0 ppb in 0.2% NaCl) was 0.0 throughout. Also, the “Sweet, after-expectoration perception” value in the assay on panelists [2] (0.1 ppb in 0.2% NaCl), in the assay on panelists [2] (0.5 ppb in 0.2% NaCl), in the assay with panelists [2] (1.0 ppb in 0.2% NaCl), in the assay on panelists [2] (10.0 ppb in 0.2% NaCl) and in the assay on panelists [2] (50.0 ppb in 0.2% NaCl) was 0.0 in each case. Moreover, the “Level of the aromatics, basic tastes and chemical feeling factors after expectoration with increasing concentration” value with panelists [2] (0.1 to 40.0/50.0 ppb) was “do not increase”. Also, the “Salt perception after expectoration as the concentration increases” value with panelists [2] (0.1 to 40.0/50.0 ppb in 0.2% NaCl) is “increases slightly; also recorded: slight increase”. In the assay with panelists [2] (all levels), the “Umami like swelling of lips and tongue, after expectoration” value was “Panelists also experience Umami like swelling of lips and tongue”. For the same substance, the “Salt perception from in-mouth to after expectoration” value in the assay with panelists [2] (all samples, 0.1 to 40.0/50.0 ppb) is listed as “increases after expectoration (from in-mouth) in all samples; also recorded: noticeable increase”. Further, the “Mean time needed to return to baseline” value with panelists [3] (0.1 ppb in 0.2% NaCl) turned out to be 4.6 min; in the assay with panelists [3] (0.5 ppb in 0.2% NaCl), 4.6 min; in the assay with panelists [3] (1.0 ppb in 0.2% NaCl), 3.9 min; in the assay on panelists [3] (10.0 ppb in 0.2% NaCl) it was 5.8 min; in the assay with panelists [3] (50.0 ppb in 0.2% NaCl), 6.6 min. In addition, the “Mean time needed to return to baseline (min.)” value was 4.6 min in the assay with panelists [3] (0.1 ppb in 0.2% NaCl); 4.6 min in the assay with panelists [3] (0.5 ppb in 0.2% NaCl); 3.9 min in the assay on panelists [3] (1.0 ppb in 0.2% NaCl); 5.8 min in the assay with panelists [3] (10.0 ppb in 0.2% NaCl); 6.6 min with panelists [3] (50.0 ppb in 0.2% NaCl). The “Time needed to return to baseline as the concentration increases” value in the assay with panelists [3] (0.1 to 40.0/50.0 ppb) is on record as “increases slightly overall; also recorded: slight increase overall”.

On to [pGlu]-Val-Cys [UE-30], for which the “Whether consumers notice a difference between the Control and test rice (DOD)” value in the assay with panelists [1] (1 ppb) was “Consumers may or may not notice a difference”; in the assay on panelists [1] (10 and 100 ppb), “Consumers will likely notice a difference”. Further, the “Degree of Difference in rice” value in the assay with panelists [1] (1.0 ppb) amounted to 4.5; in the assay with panelists [1] (10.0 ppb), 5.0; in the assay on panelists [1] (100.0 ppb) it was 5.0. For the same substance, the entries for the “DOD from Control” value in the assay on panelists [1] (1.0 ppb (5 ppm)), in the assay with panelists [1] (10.0 ppb (50 ppm)) and in the assay on panelists [1] (100 ppb (50 ppm)) were 4.5, 5.0 and 5.0, respectively.
